Here are results for 23 compounds from patent US20240174648A1, “Small Molecule Compound” (Technoderma Medicines Pte Ltd, priority 2019, published 2024).

The target in experiment [1] is JAK1 (Homo sapiens, UniProt P23458). Description: JAK kinase inhibition assay (EZ Reader, peptide substrate phosphorylation) - JAK1. The class given is biochemical. The following applies: JAK1 kinase 20 nM; 8 concentration points, max 10 μM. The text has this:
(§1) Assay for Identifying Inhibitory Effects of Compounds on JAK Kinases
(§2) Janus kinases (JAK), including JAK1, JAK2, JAK3 and Tyk2, transduce a cytokine-mediated signal through a JAK-STAT pathway. The kinases are 120-140 kDa in size and have 7 determined homology regions: JH1 to JH7. JH1 is an important region for enzymatic activity and has typical characteristics of tyrosine kinases. Phosphorylation of tyrosine leads to a change in the conformation of JAK protein, thereby promoting binding of substrate. The JAK-STAT system includes three main parts: receptors penetrating a cell membrane, Janus kinases binding to the receptors, and signal transducers and activators of transcription (STAT) for transmitting signals to a nucleus and DNA. When cytokines bind to receptors, JAK phosphorylates the receptors and attracts STAT proteins. The STAT proteins are also phosphorylated and combined with one another to form dimers. The dimers enter the nucleus and bind to DNA, thereby leading to gene transcription.
(§3) EZ Reader from PerkinElmer can be used to detect the phosphorylation of polypeptide substrates catalyzed by kinases. The device is based on microfluidic techniques, and can directly detect fluorescently labeled substrates and products. The separation step is achieved by controlling the pressure and electric field strength in the microfluidic chip. In kinase assays, a product conversion ratio is usually controlled to be 20-30%. A biological test is used to identify inhibitory effects of compounds on JAKs.
(§4) Compound powder was dissolved in DMSO, sealed and stored in a freezer under −20° C. The in-house compound Ref1 was used as a positive control for JAK1, JAK2 and Tyk2 tests, and Ref2 was used as a positive control for JAK3 tests.
(§5) S2.8. Assay buffer: 20 mM HEPES buffer, pH 7.4, 10 mM magnesium chloride, 0.01% bovine serum albumin BSA, 0.0005% Tween-20 and 1 mM dithiothreitol solution.
(§6) S2.9. Stop buffer: 180 mM HEPES buffer, 20 mM ethylenediaminetetraacetic acid and 0.2% coating reagent 3.
(§7) S2.10. Separation buffer: 100 mM HEPES buffer, 10 mM ethylenediaminetetraacetic acid, 0.0005% Tween 20, 0.1% coating reagent 3 and 1% dimethyl sulfoxide.
(§8) The compound was dissolved in dimethyl sulfoxide and diluted to 10 mM concentration, a certain volume of solution was taken and diluted to 0.6 mM concentration, 10 μL of the 0.6 mM dilution was added to a 384-well microplate, and then was diluted 3-fold with a total of 8 concentration points.
(§9) Positive control (HPE1): Ref1, final concentration: 10 μM […]
(§10) Negative control (ZPE): DMSO, final content: 1.6%
(§11) Compounds: maximum final concentration: 10 μM; 3-fold dilution, 8 concentration points and 2 duplicates.
(§12) S4.1. 250 nL of the compound was added to each well of the assay microplate by using ECHO, and centrifuged at 1000 rpm for 1 minute.
(§13) S4.2. 5 μL of the assay buffer was added and agitated for a few seconds to fully dissolve the compound.
(§14) S4.3. 5 μL of 3× substrate solution and 5 μL of 3× kinase solution were added and centrifuged at 800 rpm for 1 minute.
(§15) S4.4. Final concentrations of JAK1, JAK2, JAK3 and Tyk2 kinases in the reaction system were 20 nM, 1 nM, 1 nM and 1 nM respectively.
(§16) S4.5. Incubation at room temperature, where kinases had time differences, and different batches of kinases had time differences.
(§17) S4.6. When 20%-30% of the reaction completed, 15 μL of stop buffer was added to stop the reaction, and centrifuged at 1000 rpm for 2 minutes.
(§18) S4.7. The microplates were placed on EZ Reader for reading.
(§19) S4.8. Readings on EZ Reader were calculated by using a peak height, where product conversion ratio (%)=product/(product+substrate)*100.
(§20) 5. Data Processing: IC50 calculation
(§21) A graphing software Xlfit was used to form a concentration curve of the test compound, and an IC50 value was calculated.
(§22) “A” means “≥10 μM”; “B” means “≥1 μM and <10 μM”; “C” means “≥0.1 μM and <1 μM”; and “D” means “<0.1 μM”.

For experiment [2], the target named is Tyk2 (Homo sapiens, UniProt P29597). Description: JAK kinase inhibition assay (EZ Reader, peptide substrate phosphorylation) - Tyk2. The class given is biochemical. The following applies: Tyk2 kinase 1 nM; 8 concentration points, max 10 μM.
Tyk2, sequence (P29597 whole entry): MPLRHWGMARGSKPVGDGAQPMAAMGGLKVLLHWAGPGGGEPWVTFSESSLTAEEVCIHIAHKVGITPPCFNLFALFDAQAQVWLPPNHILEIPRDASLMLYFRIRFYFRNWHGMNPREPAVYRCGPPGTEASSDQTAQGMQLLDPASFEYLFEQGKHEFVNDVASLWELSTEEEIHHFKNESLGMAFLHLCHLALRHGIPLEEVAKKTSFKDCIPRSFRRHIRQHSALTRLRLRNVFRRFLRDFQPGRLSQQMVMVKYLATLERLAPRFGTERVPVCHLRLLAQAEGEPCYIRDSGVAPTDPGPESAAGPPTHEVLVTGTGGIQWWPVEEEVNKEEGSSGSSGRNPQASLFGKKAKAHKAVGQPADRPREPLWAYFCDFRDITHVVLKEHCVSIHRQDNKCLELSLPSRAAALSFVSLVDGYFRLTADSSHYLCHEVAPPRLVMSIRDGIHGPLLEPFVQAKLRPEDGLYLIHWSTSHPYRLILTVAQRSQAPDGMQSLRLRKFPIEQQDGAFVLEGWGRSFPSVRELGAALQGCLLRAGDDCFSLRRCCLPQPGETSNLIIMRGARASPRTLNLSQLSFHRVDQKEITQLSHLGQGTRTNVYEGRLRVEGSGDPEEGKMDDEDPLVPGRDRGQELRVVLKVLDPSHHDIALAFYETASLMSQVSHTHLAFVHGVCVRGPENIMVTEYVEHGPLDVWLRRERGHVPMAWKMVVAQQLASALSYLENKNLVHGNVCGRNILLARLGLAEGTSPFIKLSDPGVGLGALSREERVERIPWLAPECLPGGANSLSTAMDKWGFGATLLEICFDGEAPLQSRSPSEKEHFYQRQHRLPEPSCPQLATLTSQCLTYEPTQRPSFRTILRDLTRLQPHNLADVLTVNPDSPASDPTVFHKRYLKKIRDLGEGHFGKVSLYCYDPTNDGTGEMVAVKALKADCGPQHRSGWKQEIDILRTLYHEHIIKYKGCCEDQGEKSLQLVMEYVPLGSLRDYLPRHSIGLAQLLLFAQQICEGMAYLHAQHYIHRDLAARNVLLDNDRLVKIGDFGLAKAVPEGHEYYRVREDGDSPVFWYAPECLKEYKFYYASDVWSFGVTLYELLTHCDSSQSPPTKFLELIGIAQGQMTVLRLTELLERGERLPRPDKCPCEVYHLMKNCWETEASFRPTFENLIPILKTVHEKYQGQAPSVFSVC
Text: as §1, §2, §3, §4, §5, §6, §7, §8, §9, §10, §11, §12, §13, §14, §15, §16, §17, §18, §19, §20, §21, §22

JAK1, sequence (P23458 whole entry): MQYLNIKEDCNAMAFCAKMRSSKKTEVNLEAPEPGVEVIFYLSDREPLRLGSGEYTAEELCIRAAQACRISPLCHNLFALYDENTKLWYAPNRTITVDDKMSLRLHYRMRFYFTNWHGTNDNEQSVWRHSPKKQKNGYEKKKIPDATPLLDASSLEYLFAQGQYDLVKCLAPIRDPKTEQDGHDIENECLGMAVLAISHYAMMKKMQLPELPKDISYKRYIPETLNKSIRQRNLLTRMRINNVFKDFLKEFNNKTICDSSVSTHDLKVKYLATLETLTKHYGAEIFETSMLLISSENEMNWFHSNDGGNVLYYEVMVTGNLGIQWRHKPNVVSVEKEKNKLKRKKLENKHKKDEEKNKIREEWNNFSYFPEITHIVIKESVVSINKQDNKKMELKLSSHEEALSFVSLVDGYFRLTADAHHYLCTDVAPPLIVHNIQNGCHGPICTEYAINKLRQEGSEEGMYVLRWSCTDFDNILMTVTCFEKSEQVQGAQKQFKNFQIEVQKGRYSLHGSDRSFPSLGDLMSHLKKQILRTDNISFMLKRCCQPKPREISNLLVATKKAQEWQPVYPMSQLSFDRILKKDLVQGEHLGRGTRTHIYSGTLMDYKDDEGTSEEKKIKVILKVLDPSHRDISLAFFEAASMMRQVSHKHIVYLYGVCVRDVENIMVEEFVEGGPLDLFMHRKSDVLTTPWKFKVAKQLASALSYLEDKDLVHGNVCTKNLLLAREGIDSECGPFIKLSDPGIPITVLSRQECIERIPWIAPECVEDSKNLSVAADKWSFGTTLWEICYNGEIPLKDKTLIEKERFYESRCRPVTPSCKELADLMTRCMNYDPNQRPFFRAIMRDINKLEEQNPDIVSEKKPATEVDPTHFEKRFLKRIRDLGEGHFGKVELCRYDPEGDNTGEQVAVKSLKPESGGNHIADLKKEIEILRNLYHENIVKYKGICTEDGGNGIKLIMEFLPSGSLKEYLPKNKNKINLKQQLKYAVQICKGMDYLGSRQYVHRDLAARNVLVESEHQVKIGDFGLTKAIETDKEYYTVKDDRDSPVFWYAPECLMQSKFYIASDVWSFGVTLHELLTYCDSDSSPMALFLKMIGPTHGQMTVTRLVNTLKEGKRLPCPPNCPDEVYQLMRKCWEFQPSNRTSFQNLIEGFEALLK

One may read the IC50 as the point on the concentration scale where inhibition reaches its midpoint. Read a high IC50 as weaker potency in that assay. On to `Cn1cc(Nc2nccc(-c3cnc(NC(=O)CC#N)c(F)c3)n2)cn1` [TDM-180890, 2-cyano-N-(3-fluoro-5-(2-((1-methyl-1H-pyrazol-4-yl)amino)pyrimidin-4-yl)pyridin-2-yl)acetamide], for which the IC50 in experiment [1] is 0.1 to 1 µM; in experiment [2] it was 1 to 10 µM.
The like results for `Cn1cc(Nc2nccc(-c3cnc(NC(=O)C4CC4)c(F)c3)n2)cn1` [TDM-180891, N-(3-fluoro-5-(2-((1-methyl-1H-pyrazol-4-yl)amino)pyrimidin-4-yl)pyridin-2-yl)cyclopropanecarboxamide] were, in that order, 1 to 10 µM and 1 to 10 µM.
The like results for `Cn1cc(Nc2nccc(-c3cnc(NC(=O)C4CC4(F)F)cn3)n2)cn1` (stereo not shown) [TDM-180892, 2,2-difluoro-N-(5-(2-((1-methyl-1H-pyrazol-4-yl)amino)pyrimidin-4-yl)pyrazin-2-yl)cyclopropane-1-formamide] were, in that order, 0.1 to 1 µM and 1 to 10 µM.
The like results for `CCCS(=O)(=O)Nc1ccc(-c2ccnc(Nc3cnn(C)c3)n2)cc1` [TDM-180893, N-(4-(2-((1-methyl-1H-pyrazol-4-yl)amino)pyrimidin-4-yl)phenyl)propane-1-sulfonamide] were, in that order, 0.1 to 1 µM and 0.1 to 1 µM.
With `Cn1cc(Nc2nccc(-c3ccc(NS(=O)(=O)CCc4ccccc4)cc3)n2)cn1` [TDM-180894, N-(4-(2-((1-methyl-1H-pyrazol-4-yl)amino)pyrimidin-4-yl)phenyl)-2-phenylethane-1-sulfonamide], the IC50 in experiment [1] and in experiment [2] was 0.1 to 1 µM in each case.
On to `Cn1cc(Nc2nccc(-c3ccc(NS(=O)(=O)CCC(F)(F)F)nc3)n2)cn1` [TDM-180895, 3,3,3-trifluoro-N-(5-(2-((1-methyl-1H-pyrazol-4-yl)amino)pyrimidin-4-yl)pyridin-2-yl)propane-1-sulfonamide], for which the figures for the IC50 in experiment [1] and in experiment [2] were 1 to 10 µM and ≥ 10 µM, respectively.
The like results for `Cn1cc(Nc2nccc(-c3ccc(NS(=O)(=O)CCCF)cc3)n2)cn1` [TDM-180896, 3-fluoro-N-(4-(2-((1-methyl-1H-pyrazol-4-yl)amino)pyrimidin-4-yl)phenyl)propane-1-sulfonamide] were, in that order, 0.1 to 1 µM and 0.1 to 1 µM.
Consider `Cn1cc(Nc2nccc(-c3ccc(NS(=O)(=O)Cc4ccccc4)nc3)n2)cn1` [TDM-180897, N-(5-(2-((1-methyl-1H-pyrazol-4-yl)amino)pyrimidin-4-yl)pyridin-2-yl)-1-phenylmethanesulfonamide], for which the IC50 in experiment [1] and in experiment [2] was 0.1 to 1 µM in each case.
As to `Cn1cc(Nc2nccc(-c3ccc(NC(=O)CC#N)c4[nH]ncc34)n2)cn1` [TDM-180898, 2-cyano-N-(4-(2-((1-methyl-1H-pyrazol-4-yl)amino)pyrimidin-4-yl)-1H-indazole-7-yl)acetamide], the IC50 in experiment [1] and in experiment [2] was 0.1 to 1 µM in each case.
Turning to `Cn1cc(Nc2nccc(-c3ccc(NC(=O)C4CC4(F)F)c4[nH]ncc34)n2)cn1` (stereo not shown) [TDM-180899, 2,2-difluoro-N-(4-(2-((1-methyl-1H-pyrazol-4-yl)amino)pyrimidin-4-yl)-1H-indazol-7-yl)cyclopropane-1-carboxamide], the concentration for half-maximal inhibition (IC50) was < 0.1 µM in experiment [1] and 0.1 to 1 µM in experiment [2].
Take `Cn1cc(Nc2nccc(-c3ccc(NC(=O)CC(F)(F)F)c4[nH]ncc34)n2)cn1` [TDM-180900, 3,3,3-trifluoro-N-(4-(2-((1-methyl-1H-pyrazol-4-yl)amino)pyrimidin-4-yl)-1H-indazol-7-yl)propionamide]: the half-inhibitory concentration (IC50) in experiment [1] is < 0.1 µM; in experiment [2] it was 0.1 to 1 µM.
In the case of `CCCS(=O)(=O)Nc1ccc(-c2ccnc(Nc3cnn(C)c3)n2)cn1` [TDM-180901, N-(5-(2-((1-methyl-1H-pyrazol-4-yl)amino)pyrimidin-4-yl)pyridin-2-yl)propane-1-sulfonamide], the IC50 in experiment [1] is 1 to 10 µM; in experiment [2], ≥ 10 µM.
In the same order, the values of `Cn1cc(Nc2nccc(-c3cnc(NC(=O)CC#N)nc3)n2)cn1` [TDM-180902, 2-cyano-N-(2-((1-methyl-1H-pyrazol-4-yl)amino)-[4,5′-bipyrimidin]-2′-yl)acetamide] are 1 to 10 µM and 1 to 10 µM.
On to `Cn1cc(Nc2nccc(-c3ccc(NS(=O)(=O)CCCF)nc3)n2)cn1` [TDM-180903, 3-fluoro-N-(5-(2-((1-methyl-1H-pyrazol-4-yl)amino)pyrimidin-4-yl)pyridin-2-yl)propane-1-sulfonamide], for which the IC50 in experiment [1] and in experiment [2] was 1 to 10 µM throughout.
As to `Cn1cc(Nc2nccc(-c3cnc(NC(=O)C4CC4)nc3)n2)cn1` [TDM-180904, N-(2-((1-methyl-1H-pyrazol-4-yl)amino)-[4,5′-bipyrimidin]-2′-yl)cyclopropanecarboxamide], the IC50 in experiment [1] and in experiment [2] was 1 to 10 µM throughout.
In the case of `Cn1cc(Nc2nccc(-c3cnc(NC(=O)CC(F)(F)F)cn3)n2)cn1` [TDM-180905, 3,3,3-trifluoro-N-(5-(2-((1-methyl-1H-pyrazol-4-yl)amino)pyrimidin-4-yl)pyrazin-2-yl)propanamide], the IC50 in experiment [1] fell in the range of 0.1 to 1 µM; in experiment [2], 1 to 10 µM.
Regarding `Cc1cc(-c2ccnc(Nc3cnn(C)c3)n2)cnc1NC(=O)C1CC1(F)F` (stereo not shown) [TDM-180906, 2,2-difluoro-N-(3-methyl-5-(2-((1-methyl-1H-pyrazol-4-yl)amino)pyrimidin-4-yl)pyridin-2-yl)cyclopropane-1-carboxamide], the IC50 in experiment [1] was in the range of 0.1 to 1 µM; in experiment [2], 1 to 10 µM.
In the case of `Cc1cc(-c2ccnc(Nc3cnn(C)c3)n2)cnc1NC(=O)CC#N` [TDM-180907, 2-cyano-N-(3-methyl-5-(2-((1-methyl-1H-pyrazol-4-yl)amino)pyrimidin-4-yl)pyridin-2-yl)acetamide], the IC50 in experiment [1] and in experiment [2] was 1 to 10 µM throughout.
For `Cc1cc(-c2ccnc(Nc3cnn(C)c3)n2)cnc1NC(=O)CC(F)(F)F` [TDM-180908, 3,3,3-trifluoro-N-(3-methyl-5-(2-((1-methyl-1H-pyrazol-4-yl)amino)pyrimidin-4-yl)pyridin-2-yl)propanamide], the IC50 in experiment [1] lay in the range of 0.1 to 1 µM; in experiment [2] it was 1 to 10 µM.
Take `Cc1cc(-c2ccnc(Nc3cnn(C)c3)n2)cnc1NC(=O)C1CC1` [TDM-180910, N-(3-methyl-5-(2-((1-methyl-1H-pyrazol-4-yl)amino)pyrimidin-4-yl)pyridin-2-yl)cyclopropanemethane]: the IC50 is 1 to 10 µM in experiment [1] and ≥ 10 µM in experiment [2].
The like results for `Cn1cc(Nc2nccc(-n3ccc4c(NC(=O)CC5CC5)cccc43)n2)cn1` [TDM-180911, 2-cyclopropyl-N-(1-(2-((1-methyl-1H-pyrazol-4-yl)amino)pyrimidin-4-yl)-1H-indol-4-yl)acetamide] were, in that order, 0.1 to 1 µM and 1 to 10 µM.
As for `Cn1cc(Nc2nccc(-c3cnc(NS(=O)(=O)Cc4ccccc4)c(F)c3)n2)cn1` [TDM-180913, N-(3-fluoro-5-(2-((1-methyl-1H-pyrazol-4-yl)amino)pyrimidin-4-yl)pyridin-2-yl)-1-phenylmethanesulfonamide], the IC50 in experiment [1] and in experiment [2] was ≥ 10 µM in each case.
`Cn1cc(Nc2nccc(-c3cnc(NC(=O)C4CC4)cn3)n2)cn1` [TDM-180914, N-(5-(2-((1-methyl-1H-pyrazol-4-yl)amino)pyrimidin-4-yl)pyrazin-2-yl)cyclopropanemethane]: the IC50 in experiment [1] and in experiment [2] was 1 to 10 µM in each case.
